Assay results published in ChEMBL document CHEMBL5634133, “Indirubin derivatives as bifunctional molecules inducing DNA damage and targeting PARP for the treatment of cancer” (Eur J Med Chem, 2023).
Activity calls are given as the source filed them. The calls are words filed in the database; no cut-off is given here.

Key:
[1] = system: MV4-11; assay: Antiproliferative activity against human MV4-11 cells assessed as inhibition of cell viability incubated for 72 hrs by CCK8 assay; type: functional, cell-based; settings: MV4-11, 72 h
[2] = system: A549; assay: Antiproliferative activity against human A549 cells assessed as inhibition of cell viability incubated for 72 hrs by CCK8 assay; type: functional, cell-based; settings: A549, 72 h
[3] = system: NCM460; assay: Antiproliferative activity against human NCM460 cells assessed as inhibition of cell viability incubated for 72 hrs by CCK8 assay; type: functional, cell-based; settings: NCM460, 72 h
[4] = system: MCF7; assay: Antiproliferative activity against human MCF7 cells assessed as inhibition of cell viability incubated for 72 hrs by CCK8 assay; type: functional, cell-based; settings: MCF7, 72 h
[5] = system: HCT-116; assay: Antiproliferative activity against human HCT-116 cells assessed as inhibition of cell viability incubated for 72 hrs by CCK8 assay; type: functional, cell-based; settings: HCT-116, 72 h
[6] = molecular target: T1, Poly [ADP-ribose] polymerase 1 (Homo sapiens, UniProt P09874); assay: Inhibition of PARP1 (unknown origin) incubated for 10 mins by chemiluminescence assay
T1 sequence (P09874 whole entry): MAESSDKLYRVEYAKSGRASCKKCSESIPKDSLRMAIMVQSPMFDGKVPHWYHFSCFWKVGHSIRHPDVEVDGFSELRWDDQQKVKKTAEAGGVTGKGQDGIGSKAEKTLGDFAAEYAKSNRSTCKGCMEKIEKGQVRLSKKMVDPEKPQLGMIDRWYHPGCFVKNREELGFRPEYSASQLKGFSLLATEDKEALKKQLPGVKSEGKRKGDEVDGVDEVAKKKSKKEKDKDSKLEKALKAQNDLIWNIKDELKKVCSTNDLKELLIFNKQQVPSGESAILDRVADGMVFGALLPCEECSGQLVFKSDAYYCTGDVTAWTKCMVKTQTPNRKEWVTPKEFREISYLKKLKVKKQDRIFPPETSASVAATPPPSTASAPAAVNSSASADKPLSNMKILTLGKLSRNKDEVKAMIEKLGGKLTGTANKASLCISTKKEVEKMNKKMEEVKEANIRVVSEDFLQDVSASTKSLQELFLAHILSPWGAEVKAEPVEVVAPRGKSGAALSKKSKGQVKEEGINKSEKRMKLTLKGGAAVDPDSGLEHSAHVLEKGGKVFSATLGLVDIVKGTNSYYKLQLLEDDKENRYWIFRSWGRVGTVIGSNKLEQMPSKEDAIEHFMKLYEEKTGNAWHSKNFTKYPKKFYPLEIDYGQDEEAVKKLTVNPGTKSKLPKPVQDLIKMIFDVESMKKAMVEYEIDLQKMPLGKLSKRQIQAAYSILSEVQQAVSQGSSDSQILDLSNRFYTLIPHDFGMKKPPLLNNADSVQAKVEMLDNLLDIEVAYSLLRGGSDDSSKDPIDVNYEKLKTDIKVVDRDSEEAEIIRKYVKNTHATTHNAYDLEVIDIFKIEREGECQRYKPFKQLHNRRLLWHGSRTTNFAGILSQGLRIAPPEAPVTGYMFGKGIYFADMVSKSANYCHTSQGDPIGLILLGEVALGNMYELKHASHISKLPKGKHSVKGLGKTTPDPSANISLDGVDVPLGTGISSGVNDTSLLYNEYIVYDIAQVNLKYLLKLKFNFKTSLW

[7] = molecular target: T1, Poly [ADP-ribose] polymerase 1; settings: dose 10.0 nM, time 10.0 min
[8] = system: NCM460; assay: cells; settings: Homo sapiens, NCM460, 72 h
Description: Antiproliferative activity against human NCM460 cells assessed as inhibition of cell viability incubated for 72 hrs in presence of IDM by CCK8 assay

[9] = system: MV4-11; assay: Antiproliferative activity against human MV4-11 cells assessed as inhibition of cell viability incubated for 72 hrs in presence of IDM by CCK8 assay; type: functional, cell-based; settings: MV4-11, 72 h
[10] = system: HCT-116; assay: cells; settings: Homo sapiens, HCT-116, 72 h
Description: Antiproliferative activity against human HCT-116 cells assessed as inhibition of cell viability incubated for 72 hrs in presence of IDM by CCK8 assay

[11] = system: A549; assay: cells; settings: Homo sapiens, A549, 72 h
Description: Antiproliferative activity against human A549 cells assessed as inhibition of cell viability incubated for 72 hrs in presence of IDM by CCK8 assay

[12] = system: MCF7; assay: cells; settings: Homo sapiens, MCF7, 72 h
Description: Antiproliferative activity against human MCF7 cells assessed as inhibition of cell viability incubated for 72 hrs in presence of IDM by CCK8 assay

[13] = system: HCT-116; assay: Induction of DNA damage in human HCT-116 cells assessed as increase in gammaH2AX protein level at 1 uM incubated for 48 hrs in presence of IDM by Western blotting analysis; type: cell-based
[14] = system: HCT-116; assay: Antitumor activity against human HCT-116 cells xenografted in BALB/c nude mouse assessed as tumor growth inhibition at 20 mg/kg, ip administered for 14 days relative to control; type: functional; settings: time 14 day

| SMILES | IC50 [1] [µM] | IC50 [2] [µM] | IC50 [3] [µM] | IC50 [4] [µM] | IC50 [5] [µM] | IC50 [6] [µM] | inhibition [7] [%] | IC50 [8] [µM] | IC50 [9] [µM] | IC50 [10] [µM] | IC50 [11] [µM] | IC50 [12] [µM] | Activity [13] | TGI [14] [%] |
| --- | --- | --- | --- | --- | --- | --- | --- | --- | --- | --- | --- | --- | --- | --- |
| O=C1Nc2ccccc2/C1=C1/Nc2ccccc2/C1=N\OCCCCCCNC(=O)c1cc(Cc2n[nH]c(=O)c3ccccc23)ccc1F | > 50 | > 50 | > 60 | > 50 | 47.2 | – | – | – | – | – | – | – | – | – |
| O=C1Nc2ccccc2/C1=C1/Nc2ccc(F)cc2/C1=N\OCCCC(=O)N1CCN(C(=O)c2cc(Cc3n[nH]c(=O)c4ccccc34)ccc2F)CC1 | 21.6 | 25 | > 60 | 32.4 | 17.8 | 0.00446 | 55.8 | – | – | – | – | – | – | – |
| O=C1Nc2ccccc2/C1=C1/Nc2ccccc2/C1=N\OCC1CCN(C(=O)c2cc(Cc3n[nH]c(=O)c4ccccc34)ccc2F)CC1 | 47.5 | > 50 | > 60 | > 50 | 45 | – | – | – | – | – | – | – | – | – |
| O=C1Nc2ccccc2/C1=C1/Nc2ccccc2/C1=N\OCCCCCCC(=O)N1CCN(C(=O)c2ccc(Cc3n[nH]c(=O)c4ccccc34)cc2F)CC1 | > 50 | > 50 | > 60 | > 50 | 39.2 | – | – | – | – | – | – | – | – | – |
| NC(=O)c1cccc2cn(-c3ccc([C@@H]4CCCNC4)cc3)nc12 [NIRAPARIB] | 3.82 | 12.6 | 53.7 | 11.8 | 1.81 | – | – | 21.1 | 1.69 | 0.83 | 4.17 | 1.41 | – | – |
| O=C1Nc2ccccc2/C1=C1/Nc2ccccc2/C1=N\OCCCCCCCC(=O)N1CCN(C(=O)c2ccc(Cc3n[nH]c(=O)c4ccccc34)cc2F)CC1 | > 50 | > 50 | > 60 | > 50 | 43.9 | – | – | – | – | – | – | – | – | – |
| O=C1Nc2ccccc2/C1=C1/Nc2ccccc2/C1=N\OCCCNC(=O)c1cc(Cc2n[nH]c(=O)c3ccccc23)ccc1F | 14.9 | 8.22 | 9.37 | 6.89 | 13.7 | – | – | – | – | – | – | – | – | – |
| O=C1Nc2ccccc2/C1=C1/Nc2ccccc2/C1=N\OCCCCCC(=O)N1CCN(C(=O)c2ccc(Cc3n[nH]c(=O)c4ccccc34)cc2F)CC1 | > 50 | > 50 | > 60 | > 50 | 32.4 | – | – | – | – | – | – | – | – | – |
| NC(=O)c1cccc2cn(-c3ccc([C@@H]4CCCN(C(=O)CCCCCCO/N=C5/C(=C6/C(=O)Nc7ccccc76)Nc6ccccc65)C4)cc3)nc12 | > 50 | > 50 | > 60 | > 50 | > 50 | – | – | – | – | – | – | – | – | – |
| O=C1Nc2ccccc2/C1=C1/Nc2ccccc2/C1=N\OCCCCNC(=O)c1cc(Cc2n[nH]c(=O)c3ccccc23)ccc1F | 11.7 | 4.41 | 8.04 | 1.82 | 3.1 | – | – | – | – | – | – | – | – | – |
| O=C1Nc2ccccc2/C1=C1/Nc2ccccc2/C1=N\OCc1ccc(C(=O)N2CCN(C(=O)c3cc(Cc4n[nH]c(=O)c5ccccc45)ccc3F)CC2)cc1 | 33.1 | 42.7 | > 60 | 43.8 | 27.4 | – | – | – | – | – | – | – | – | – |
| O=C1Nc2ccc(Br)cc2/C1=C1/Nc2ccc(Br)cc2/C1=N\OCCCC(=O)N1CCN(C(=O)c2cc(Cc3n[nH]c(=O)c4ccccc34)ccc2F)CC1 | 48.4 | 47.2 | > 60 | 48.7 | 8.21 | – | 31.1 | – | – | – | – | – | – | – |
| NC(=O)c1cccc2cn(-c3ccc([C@@H]4CCCN(C(=O)c5ccc(CO/N=C6/C(=C7/C(=O)Nc8ccccc87)Nc7ccccc76)cc5)C4)cc3)nc12 | 39.6 | 49.1 | > 60 | 47.3 | 31.3 | – | – | – | – | – | – | – | – | – |
| NC(=O)c1cccc2cn(-c3ccc([C@@H]4CCCN(C(=O)CCCCCCCO/N=C5/C(=C6/C(=O)Nc7ccccc76)Nc6ccccc65)C4)cc3)nc12 | > 50 | > 50 | > 60 | > 50 | > 50 | – | – | – | – | – | – | – | – | – |
| O=C1Nc2ccccc2/C1=C1/Nc2ccccc2/C1=N\OCCCCCCCNC(=O)c1cc(Cc2n[nH]c(=O)c3ccccc23)ccc1F | > 50 | > 50 | > 60 | > 50 | > 50 | – | – | – | – | – | – | – | – | – |
| O=C1Nc2ccc(Cl)cc2/C1=C1/Nc2ccccc2/C1=N\OCCCC(=O)N1CCN(C(=O)c2cc(Cc3n[nH]c(=O)c4ccccc34)ccc2F)CC1 | > 50 | > 50 | > 60 | > 50 | 28.3 | – | – | – | – | – | – | – | – | – |
| O=C1Nc2ccccc2/C1=C1/Nc2ccccc2/C1=N\OCCCCC(=O)N1CCN(C(=O)c2ccc(Cc3n[nH]c(=O)c4ccccc34)cc2F)CC1 | 38.7 | 37.6 | > 60 | 44.3 | 21.1 | – | – | – | – | – | – | – | – | – |
| O=C1Nc2ccc(F)cc2/C1=C1/Nc2ccccc2/C1=N\OCCCC(=O)N1CCN(C(=O)c2cc(Cc3n[nH]c(=O)c4ccccc34)ccc2F)CC1 | 23.8 | 34.7 | > 60 | 38.7 | 19.3 | 0.00225 | 54.9 | – | – | – | – | – | – | – |
| O=C(c1cc(Cc2n[nH]c(=O)c3ccccc23)ccc1F)N1CCN(C(=O)C2CC2)CC1 [OLAPARIB] | 13.4 | 29.5 | 67.2 | 93.9 | 11.1 | – | 50.6 | 20.2 | 2.36 | 1.37 | 6.06 | 2.33 | Active | 32.5 |
| O=C1Nc2ccccc2/C1=C1/Nc2ccccc2/C1=N\OCCCCCNC(=O)c1cc(Cc2n[nH]c(=O)c3ccccc23)ccc1F | > 50 | > 50 | > 60 | > 50 | 25.5 | – | – | – | – | – | – | – | – | – |
| O=C1Nc2ccc(Br)cc2/C1=C1/Nc2ccccc2/C1=N\OCCCC(=O)N1CCN(C(=O)c2cc(Cc3n[nH]c(=O)c4ccccc34)ccc2F)CC1 | 11.4 | 27.6 | > 60 | 29.2 | 8.43 | 0.00466 | 53.8 | – | – | – | – | – | – | – |
| NC(=O)c1cccc2cn(-c3ccc([C@@H]4CCCN(C(=O)CCCCO/N=C5/C(=C6/C(=O)Nc7ccccc76)Nc6ccccc65)C4)cc3)nc12 | 36.2 | 48.2 | > 60 | 41.9 | 27.3 | – | – | – | – | – | – | – | – | – |
| O=C1Nc2ccc(F)cc2/C1=C1/Nc2ccc(F)cc2/C1=N\OCCCC(=O)N1CCN(C(=O)c2cc(Cc3n[nH]c(=O)c4ccccc34)ccc2F)CC1 | 44.4 | 42.3 | > 60 | 45.3 | 0.75 | – | 49.9 | – | – | – | – | – | – | – |
| NC(=O)c1cccc2cn(-c3ccc([C@@H]4CCCN(C(=O)CCCCCO/N=C5/C(=C6/C(=O)Nc7ccccc76)Nc6ccccc65)C4)cc3)nc12 | 47 | > 50 | > 60 | > 50 | 29.4 | – | – | – | – | – | – | – | – | – |
